Source: article PMC7377361, “Pressurized DNA state inside herpes capsids—A novel antiviral target” (PLoS Pathogens, 2020)
Where no end group is shown, it is not given here.

Tests used:
[1] = tested on: HSV-1 C-capsids; assay: Binding of GFP-HSV-1 C-capsids to nuclei of digitonin-permeabilized Vero cells (SR-SIM); assay type: cell-based
Description: This was verified with a fluorescently labeled nuclear localization signal (NLS), added to purified rat liver nuclei incubated with cytosolic extracts (as a source of soluble import factors) supplemented with an ATP regeneration system, see Supporting Materials for experimental description and S4A Fig. These controls were also reproduced with a digitonin-permeabilized cell assay, which accurately recapitulates capsid-nucleus binding and nuclear import in living cells; see Supporting Materials and data shown in S4B Fig. In agreement with observations in the isolated nuclei system (Fig 3B), we also confirmed via a digitonin-permeabilized cell assay that none of the three compounds interfered with capsid-NPC binding in cells. Attachment of GFP-capsids to nuclei was visualized with SR-SIM (S4C Fig). The addition of WGA prevented capsid binding, showing capsid-NPC binding specificity (S4C Fig).
To obtain cytosolic extracts as a source of soluble import factors, Vero cell monolayers (4 x 10^7 cells) were washed with ice-cold PBS and scraped off the plate into 5 ml of cold PBS. […] The samples were then processed for fluorescence imaging as described above. […]

[2] = tested on: HSV-1 C-capsids; assay: Reconstituted nuclei-capsid MOA-assay, ultrathin-sectioning EM of DNA ejection; assay type: biochemical; details: 37°C, 40 min; DAB-Am-4 58.5 μM, bPEI 600 39 μM, Arg^5+ 25 μM (N/P 1.5)
Description: Once the integrity and functionality of the reconstituted nuclei-capsid system for MOA testing was established, we applied a stringent test of the antiviral activity of each compound. We used ultrathin-sectioning EM to visualize DNA injection from HSV-1 capsids into isolated nuclei with DAB-Am-4 (58.5 μM), bPEI 600 (39 μM), and Arg^5+(25 μM). Compound concentrations corresponded to an N/P ratio of 1.5 (scaled proportionally to virus concentration, as described above) (Fig 4). Purified DNA-filled C-capsids were incubated with isolated rat liver nuclei in the presence of cell cytosol supplemented with ATP regeneration system for 40 min at 37°C, providing optimum conditions, found to maximize capsid binding to NPCs with subsequent DNA ejection. […] Only capsids that appeared bound to the nuclear membrane are included in the statistics (more than 790 nuclei-bound capsids and over 140 nuclei were counted for each sample analysis, providing good statistics). [Note that micrographs shown in Raw 1 of Fig 4 are lower magnification images (13,500X) which show an area around a nuclear membrane with empty and DNA-filled capsids. For our analysis of capsids bound to NPCs, we only used higher magnification images (25,000X) shown in Raw 2, to identify capsids that were associated with visible NPCs. A larger collection of these EM-micrographs at magnification 25,000X with and without different compounds added is shown in a supporting raw data file (S5 Fig).]
We built an in vitro viral HSV-1 DNA translocation system in which the HSV-1 genome was released into nucleoplasm in a homogenate solution mimicking the cytoplasm environment; see details in previously described protocol in ref.[41]. In a typical system, rat liver cell nuclei were incubated with C-capsids (HSV-1 or GFP-labeled HSV-1) in solution containing: (i) cytosol, (ii) BSA, (iii) ATP regeneration system; see details in ref.[41]. The system was incubated at 37°C for 40 min, sufficient for capsid binding to nuclei. For inhibition studies, wheat germ agglutinin (WGA) was preincubated with the nuclei prior to addition of C-capsids. For compound-induced inhibition of DNA ejection studies, C-capsids were preincubated with the polyvalent cationic agents at the concentrations described in the main text before adding capsids to nuclei.
After incubation of nuclei with C-capsids, the samples were washed once with CBB buffer (1,000 rpm for 10 min in a microcentrifuge). The supernatant was then removed and replaced with a fixative (2.5% EM-grade glutaraldehyde and 2.0% EM-grade formaldehyde in 0.1 M sodium cacodylate buffer, pH 7.4) for 3 hours at 4 °C. The fixative was then removed, replaced briefly with buffer, and then replaced with 1% osmium tetroxide in buffer for 90 minutes. Each sample was then subjected to 10-minute buffer rinse, after which it was placed in 1% aqueous uranyl acetate and left overnight. The next day, each sample was dehydrated via a graded ethanol series, culminating in propylene oxide. Following a graded propylene oxide; Epon812 series, the nuclear pellets were embedded in Epon812 prior to cutting. Ultrathin (ca. 90 nm) Epon sections on grids were stained with 1% aqueous uranyl acetate and lead citrate. After the grids dried, areas of interest were imaged at 120 kV, spot 3 using a Tietz 2kx2k camera mounted on a Philips/FEI (now Thermo Fisher FEI) CM200 transmission electron microscope.

**Q.** Which “binding of GFP-HSV-1 C-capsids to nuclei of permeabilized cells” value [1] does the source give for RRRRR [Arg^5+] here?
**A.** The value was “not blocked”.

**Q.** What about the “Capsids bound to NPC: DNA-filled capsids” value [2] of the same molecule?
**A.** Its value is 50%.

**Q.** What about the “Capsids bound to NPC: DNA-filled capsids (count)” value [2] of the same molecule?
**A.** Its value is 399.

**Q.** What about the “Capsids bound to NPC: Empty capsids” value [2] of the same molecule?
**A.** The value was 50%.

**Q.** What about the “Capsids bound to NPC: Empty capsids (count)” value [2] of the same molecule?
**A.** Its value is 398.

**Q.** What does the source list for NCCCN(CCCN)CCCCN(CCCN)CCCN [DAB-Am-4]?
**A.** binding of GFP-HSV-1 C-capsids to nuclei of permeabilized cells [1]: not blocked; Capsids bound to NPC: DNA-filled capsids [2]: 60%; Capsids bound to NPC: DNA-filled capsids (count) [2]: 479; Capsids bound to NPC: Empty capsids [2]: 40%; Capsids bound to NPC: Empty capsids (count) [2]: 313
